Assay results published in patent publication US9688691B2, “Macrocyclic quinazole derivatives and their use as MTKI” (Janssen Pharmaceutica NV, priority 2004, dated 2017).

Assays:
Type in all cases: biochemical
Fyn human = Fyn human (Homo sapiens, UniProt P06241); assay: Kinase profiling, glass-fiber filter technology: Fyn; conditions: test concentration of 10^−6 M; read-out: Fyn inhibition score
Description: (§1) The in vitro inhibition of a panel of kinases was assessed using the glass-fiber filter technology as described by Davies, S. P. et al., Biochem J. (2000), 351; p. 95-105.
(§2) In the glass-fiber filter technology the activity of the kinase of interest is measured using an appropriate substrate that is incubated with the aforementioned kinase protein in the presence of (^33P) radiolabeled ATP. (^33P) Phosporylation of the substrate is subsequently measured as radioactivity bound on a glassfiber-filter.
(§3) All kinases are pre-diluted to a 10× working concentration prior to addition into the assay. The composition of the dilution buffer for each kinase is detailed below.
(§4) All substrates are dissolved and diluted to working stocks in de-ionised water.
(§5) In a final reaction volume of 25 μl, Fyn human (5-10 mU) is incubated with 50 mM Tris pH 7.5, 0.1 mM EGTA, 0.1 mM Na3VO4, 250 μM KVEKIGEGTYGVVYK (Cdc2 peptide), 10 mM MgAcetate and [γ-^33P-ATP] (specific activity approx. 500 cpm/pmol, concentration as required). The reaction is initiated by the addition of the MgATP mix. After incubation for 40 minutes at room temperature, the reaction is stopped by the addition of 5 μl of a 3% phosphoric acid solution. 10 μl of the reaction is then spotted onto a P30 filtermat and washed three times for 5 minutes in 75 mM phosphoric acid and once in methanol prior to drying and scintillation counting.

Lck (h) = Lck (h) (Homo sapiens, UniProt P06239); assay: Kinase profiling, glass-fiber filter technology: Lck; conditions: test concentration of 10^−6 M; read-out: Lck inhibition score
Sequence of Lck (h) (P06239 whole entry): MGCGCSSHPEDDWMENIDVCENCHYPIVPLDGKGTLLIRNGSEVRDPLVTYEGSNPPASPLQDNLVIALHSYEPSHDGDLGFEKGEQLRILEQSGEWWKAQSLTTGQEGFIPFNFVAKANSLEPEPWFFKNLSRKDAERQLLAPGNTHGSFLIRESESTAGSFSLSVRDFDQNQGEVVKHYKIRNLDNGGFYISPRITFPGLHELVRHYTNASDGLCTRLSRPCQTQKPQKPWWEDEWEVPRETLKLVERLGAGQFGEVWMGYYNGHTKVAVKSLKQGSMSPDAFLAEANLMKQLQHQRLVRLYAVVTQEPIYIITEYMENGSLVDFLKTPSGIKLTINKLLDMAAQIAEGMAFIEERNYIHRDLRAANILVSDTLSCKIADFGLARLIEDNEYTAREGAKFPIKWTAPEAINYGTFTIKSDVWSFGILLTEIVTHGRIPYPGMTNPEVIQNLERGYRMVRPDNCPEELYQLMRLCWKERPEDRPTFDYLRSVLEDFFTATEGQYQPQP
Description: as §1, §2, §3, §4
as §5, with “Lck (h)” for “Fyn human”, “solution.” for “solution. 10 μl of the reaction is then spotted onto a P30 filtermat and washed three times for 5 minutes in 75 mM phosphoric acid and once in methanol prior to drying and scintillation counting.”
10 μl of the reaction is then spotted onto a P30 filtermat and washed three times for 5 minutes in 75 mM phosphoric acid and once in methanol prior to drying and scintillation counting.

Ret human = Ret human (Homo sapiens, UniProt P07949); assay: Kinase profiling, glass-fiber filter technology: Ret; conditions: test concentration of 10^−6 M; read-out: Ret inhibition score
Sequence of Ret human (P07949 29-1114): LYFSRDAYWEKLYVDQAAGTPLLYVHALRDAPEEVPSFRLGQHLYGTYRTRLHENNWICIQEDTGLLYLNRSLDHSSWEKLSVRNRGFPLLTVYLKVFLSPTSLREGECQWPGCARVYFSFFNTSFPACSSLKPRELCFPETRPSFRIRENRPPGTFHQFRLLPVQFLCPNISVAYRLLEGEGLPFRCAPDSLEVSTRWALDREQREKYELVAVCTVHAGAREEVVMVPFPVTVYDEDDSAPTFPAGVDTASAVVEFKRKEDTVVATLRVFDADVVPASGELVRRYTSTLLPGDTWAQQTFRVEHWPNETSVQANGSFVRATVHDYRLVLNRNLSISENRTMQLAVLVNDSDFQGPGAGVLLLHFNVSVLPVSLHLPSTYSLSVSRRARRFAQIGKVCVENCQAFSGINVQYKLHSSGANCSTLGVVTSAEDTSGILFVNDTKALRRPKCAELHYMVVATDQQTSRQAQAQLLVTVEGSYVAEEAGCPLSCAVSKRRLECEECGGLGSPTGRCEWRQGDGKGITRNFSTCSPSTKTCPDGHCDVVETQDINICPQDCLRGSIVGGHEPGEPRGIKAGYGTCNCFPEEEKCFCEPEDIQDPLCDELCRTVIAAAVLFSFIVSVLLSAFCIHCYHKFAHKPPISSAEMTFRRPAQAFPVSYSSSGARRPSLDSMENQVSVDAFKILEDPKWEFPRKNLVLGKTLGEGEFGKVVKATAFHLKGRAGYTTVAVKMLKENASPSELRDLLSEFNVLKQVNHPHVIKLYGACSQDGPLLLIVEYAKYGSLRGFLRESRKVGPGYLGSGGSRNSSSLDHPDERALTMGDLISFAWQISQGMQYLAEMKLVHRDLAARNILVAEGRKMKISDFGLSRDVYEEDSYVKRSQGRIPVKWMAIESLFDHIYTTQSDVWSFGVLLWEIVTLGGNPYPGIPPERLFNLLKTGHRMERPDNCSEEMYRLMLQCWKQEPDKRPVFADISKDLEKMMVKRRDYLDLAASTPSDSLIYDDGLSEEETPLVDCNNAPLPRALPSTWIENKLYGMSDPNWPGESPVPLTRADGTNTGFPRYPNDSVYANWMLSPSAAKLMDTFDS
Description: as §1, §2, §3, §4
as §5, with “μl, Ret” for “μl, Fyn”, “with 8” for “with 50”, “mM MOPS” for “mM Tris”, “pH 7.0, 0.2” for “pH 7.5, 0.1”, “mM EDTA,” for “mM EGTA, 0.1 mM Na3VO4,”, “μM KKKSPGEYVNIEFG,” for “μM KVEKIGEGTYGVVYK (Cdc2 peptide),”

Blk (m) = Blk (m) (Mus musculus, UniProt P16277); assay: Kinase profiling, glass-fiber filter technology: Blk; conditions: test concentration of 10^−6 M; read-out: Blkl inhibition score
Sequence of Blk (m) (P16277 whole entry): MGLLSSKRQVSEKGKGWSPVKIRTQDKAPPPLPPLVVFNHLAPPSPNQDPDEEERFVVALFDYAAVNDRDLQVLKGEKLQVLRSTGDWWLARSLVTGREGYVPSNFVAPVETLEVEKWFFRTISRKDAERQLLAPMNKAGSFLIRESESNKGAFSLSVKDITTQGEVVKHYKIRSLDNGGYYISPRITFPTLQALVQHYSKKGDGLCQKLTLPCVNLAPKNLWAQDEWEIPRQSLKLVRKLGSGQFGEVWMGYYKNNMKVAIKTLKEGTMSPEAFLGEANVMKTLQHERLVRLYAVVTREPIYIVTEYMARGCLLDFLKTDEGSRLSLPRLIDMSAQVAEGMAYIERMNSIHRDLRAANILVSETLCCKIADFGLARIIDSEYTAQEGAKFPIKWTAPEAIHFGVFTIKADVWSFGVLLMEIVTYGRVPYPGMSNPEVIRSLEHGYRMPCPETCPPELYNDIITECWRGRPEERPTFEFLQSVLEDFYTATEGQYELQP
Description: as §1, §2, §3, §4
as §5, with “Blk (m)” for “Fyn human”, “0.1% β-mercaptoethanol, 0.1 mg/ml poly(Glu, Tyr) 4:1,” for “250 μM KVEKIGEGTYGVVYK (Cdc2 peptide),”, “[γ-33P-ATP]” for “[γ-^33P-ATP]”, “Filtermat A” for “P30 filtermat”

Lyn (h) = Lyn (h) (Homo sapiens, UniProt P07948); assay: Kinase profiling, glass-fiber filter technology: Lyn; conditions: test concentration of 10^−6 M; read-out: Lyn inhibition score
Sequence of Lyn (h) (P07948 whole entry): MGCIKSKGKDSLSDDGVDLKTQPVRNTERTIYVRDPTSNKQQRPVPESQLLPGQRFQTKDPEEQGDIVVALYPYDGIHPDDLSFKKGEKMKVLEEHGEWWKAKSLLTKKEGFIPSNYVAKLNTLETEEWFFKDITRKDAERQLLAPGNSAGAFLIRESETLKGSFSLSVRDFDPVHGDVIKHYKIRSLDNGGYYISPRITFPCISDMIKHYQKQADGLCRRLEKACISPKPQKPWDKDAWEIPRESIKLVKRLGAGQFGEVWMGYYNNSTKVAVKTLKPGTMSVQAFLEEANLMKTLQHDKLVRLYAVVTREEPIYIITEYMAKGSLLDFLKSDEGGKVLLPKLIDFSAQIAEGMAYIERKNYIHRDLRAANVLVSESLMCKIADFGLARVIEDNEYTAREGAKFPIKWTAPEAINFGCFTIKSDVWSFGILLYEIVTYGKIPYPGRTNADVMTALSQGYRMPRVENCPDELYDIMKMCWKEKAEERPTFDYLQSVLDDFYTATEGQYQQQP
Description: as §1, §2, §3, §4
as §5, with “Lyn (h)” for “Fyn human”, “0.1% β-mercaptoethanol, 0.1 mg/ml poly(Glu, Tyr) 4:1,” for “250 μM KVEKIGEGTYGVVYK (Cdc2 peptide),”, “Filtermat A” for “P30 filtermat”

Sequence of Fyn human (P06241 whole entry): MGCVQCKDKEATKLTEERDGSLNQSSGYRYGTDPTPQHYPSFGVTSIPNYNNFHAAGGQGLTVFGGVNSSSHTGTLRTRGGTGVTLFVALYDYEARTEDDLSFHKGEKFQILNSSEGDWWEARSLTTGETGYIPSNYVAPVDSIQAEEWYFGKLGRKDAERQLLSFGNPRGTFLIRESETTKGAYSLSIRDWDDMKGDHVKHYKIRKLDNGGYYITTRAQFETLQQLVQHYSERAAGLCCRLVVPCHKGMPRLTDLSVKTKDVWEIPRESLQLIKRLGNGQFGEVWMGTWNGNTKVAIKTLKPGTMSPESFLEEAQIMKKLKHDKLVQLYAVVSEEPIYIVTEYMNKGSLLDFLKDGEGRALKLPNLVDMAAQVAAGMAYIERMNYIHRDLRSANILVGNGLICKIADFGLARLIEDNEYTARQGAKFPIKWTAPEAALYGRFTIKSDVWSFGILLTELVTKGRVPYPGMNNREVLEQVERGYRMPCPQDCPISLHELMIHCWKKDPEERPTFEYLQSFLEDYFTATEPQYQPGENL

| Compound | inhibition at 1 µM (Fyn human) | inhibition at 1 µM (Lck (h)) | inhibition at 1 µM (Ret human) | inhibition at 1 µM (Blk (m)) | inhibition at 1 µM (Lyn (h)) |
| --- | --- | --- | --- | --- | --- |
| CC(=O)OCCN(C)CCCOc1cc2ncnc3c2cc1OCCCNC(=O)[C@H](C)N(C)Cc1cc(F)c(Cl)cc1N3 [Compound 2] | > 80% | > 80% | > 80% | > 80% |  |
| CC(=O)NCCNCCCOc1cc2ncnc3c2cc1OCCCNC(=O)[C@H](C)N(C)Cc1cc(F)c(Cl)cc1N3 [Compound 4] | 60 to 80% | > 80% | > 80% | > 80% |  |
| CC(=O)N(CCO)CCCOc1cc2ncnc3c2cc1OCCCNC(=O)[C@H](C)N(C)Cc1cc(F)c(Cl)cc1N3 [Compound 5] | 60 to 80% | 60 to 80% | 60 to 80% | > 80% | > 80% |
| CC(=O)NCCN1CCN(CCCOc2cc3ncnc4c3cc2OCCCNC(=O)[C@H](C)N(C)Cc2cc(F)c(Cl)cc2N4)CC1 [Compound 6] | > 80% | > 80% |  |  | > 80% |
| CN1CCCCCOc2cc3c(ncnc3cc2OCCCNC(=O)OC(C)(C)C)Nc2cc(Br)ccc2C1 [Compound 11] | 60 to 80% |  | > 80% | 30 to 60% | 30 to 60% |
| CN1CCCCCOc2cc3c(ncnc3cc2OC[C@@H](O)CN2CCS(=O)(=O)CC2)Nc2cc(Br)ccc2C1 [Compound 12] | > 80% | > 80% | > 80% | > 80% | > 80% |
| CC(=O)NCCNCCCOc1cc2ncnc3c2cc1OCCCCCN(C)Cc1ccc(Br)cc1N3 [Compound 13] |  | > 80% | > 80% | > 80% | > 80% |

Other lines, results leading:

| inhibition at 1 µM (Fyn human) | inhibition at 1 µM (Lck (h)) | inhibition at 1 µM (Ret human) | inhibition at 1 µM (Blk (m)) | inhibition at 1 µM (Lyn (h)) | Compound |
| --- | --- | --- | --- | --- | --- |
|  | > 80% | > 80% | > 80% | > 80% | CN1CCCCCOc2cc3c(ncnc3cc2OCCCNCCS(C)(=O)=O)Nc2cc(Br)ccc2C1 [Compound 14] |
| 30 to 60% | 30 to 60% | 10 to 30% | 30 to 60% | 60 to 80% | COc1cc2ncnc3c2cc1OCCCN(CCN1CCOCC1)C(=O)CNC(=O)Cc1ccc(Cl)cc1N3 [Compound 15] |
| > 80% | > 80% |  |  | > 80% | CN1CCCCCOc2cc3c(ncnc3cc2OC[C@H](O)CNCCOCCO)Nc2cc(Cl)c(F)cc2C1 [Compound 17] |
| > 80% | > 80% |  |  | > 80% | CN1CCCCCOc2cc3c(ncnc3cc2OCCCNCCS(C)(=O)=O)Nc2cc(Cl)c(F)cc2C1 [Compound 18] |
| > 80% | > 80% | > 80% | > 80% |  | CN1CCCCCOc2cc3c(ncnc3cc2OCCCN2CCS(=O)(=O)CC2)Nc2cc(Cl)c(F)cc2C1 [Compound 19] |
|  | > 80% | > 80% | > 80% | > 80% | C#Cc1ccc2c(c1)Nc1ncnc3cc(OCCCNCCS(C)(=O)=O)c(cc13)OCCCCCN(C)C2 [Compound 20] |
| > 80% | > 80% | > 80% | > 80% | > 80% | C[C@H]1C(=O)NCCCOc2cc3c(ncnc3cc2OCCCN2CCN(C(=O)OC(C)(C)C)CC2)Nc2cc(Cl)c(F)cc2CN1C [Int. 16] |
| 30 to 60% | 60 to 80% | 30 to 60% | 30 to 60% | 60 to 80% | COc1cc2ncnc3c2cc1OCCCN(CCCN1CCOCC1)C(=O)[C@H](CC(C)C)NC(=O)Cc1ccc(Br)cc1N3 [Int. 25] |
| > 80% | > 80% | > 80% | 60 to 80% | > 80% | COCCOCCOc1cc2ncnc3c2cc1OCCCCCN(C)Cc1ccc(Br)cc1N3 [Int. 43] |
